Reference: patent publication US20240400638A1, “COMBINATION OF RELAXIN AND VASOPRESSIN ANALOGUES FOR TREATMENT OF RENAL DISORDERS OR CONDITIONS” (River 2 Renal Corp., priority 2021, published 2024)
Read-outs that look alike come from different tables or passages of the source. Numbered stars: 1 amine (or outer) side, 2 acyl side, 3 side chain; on linkers, the order of the positions; unused ones are H or OH. Square brackets hold non-standard residues; d marks the D form. Side chains are listed from the residue outwards. Peptide text beside a SMILES is read from it. * marks the point of attachment. X1 = CCCCCCCCCCCCCCCC(=O)N[C@@H](CCC(=O)N[C@@H](CCC(=O)N[C@@H](CCC(=O)NCCCOCCOCCOCCCNC(=O)CCC(=O)NCCCOCCOCCOCCCNC(=O)CCC(=O)NCCCOCCOCCOCCCN*)C(=O)O)C(=O)O)C(=O)O; Suc = O=C(CCC(=O)[*:2])[*:1]; αMeK = C[C@](N)(CCCCN)C(=O)O; Aib = CC(C)(N)C(=O)O

Tests used:
Type in all cases: in vivo, human
[1] = Phase 1 SAD/MAD study in healthy volunteers: pharmacokinetics; conditions: for AUC(0-t): read-out: AUC0-24
Method: (§1) Described in this Example is a Phase 1, randomized, double-blind, pacebo controlled trial for assessing safety, tolerability, PK, and PD of a Relaxin Agonist (i.e., Relaxin peptide analogue of SEQ ID NO: 3).
(§2) The SAD part A was a SAD study with a total of 40 subjects (n=8 per cohort; 6 to Relaxin Agonist and 2 to placebo) to be enrolled sequentially in up to 5 cohorts (Cohorts A1 to A5). Four cohorts received a dose via SC injection only and 1 cohort (Cohort A2, 4.0 mg) was dosed via both SC and IV injection, with at least 2-week washout period between SC and IV injections. The 4.0 mg dosing cohort (Cohort A2) received the IV dose after the 12.0 mg SC cohort (Cohort A3) was completed. Subjects in each cohort received 1 of 5 dose levels (1.0 mg, 4.0 mg, 12.0 mg, 24.0 mg, and 48.0 mg) or matching placebo as follows: • Cohort A1: a single SC dose of 1.0 mg Relaxin Agonist (n=6) or matching placebo (n=2) • Cohort A2: Period 1 a single SC dose of 4.0 mg Relaxin Agonist (n=6) or matching placebo (n=2) • Cohort A2: Period 2 a single 15-min IV dose of 4.0 mg Relaxin Agonist (n=6) or matching placebo (n=2) • Cohort A3: a single SC dose of 12.0 mg Relaxin Agonist (n=6) or matching placebo (n=2) • Cohort A4: a single SC dose of 24.0 mg Relaxin Agonist (n=6) or matching placebo (n=2) • Cohort A5: a single SC dose of 48.0 mg Relaxin Agonist (n=6) or matching placebo (n=2)
(§3) In the MAD part B of the study, a total of 24 subjects (n=8 per cohort; 6 to Relaxin Agonist and 2 to placebo) were enrolled sequentially (Cohorts B1 to B3) with subjects within a cohort being enrolled in a parallel fashion. Cohorts B1 to B3 receive one of 3 SC doses (5.0 mg, 15.0 mg, 30.0 mg once daily [QD]) as follows: • Cohort B1: 5.0 mg SC Relaxin Agonist (n=6) or matching placebo (n=2) QD for 14 days • Cohort B2: 15.0 mg SC Relaxin Agonist (n=6) or matching placebo (n=2) QD for 14 days • Cohort B3: 30.0 mg SC Relaxin Agonist (n=6) or matching placebo (n=2) QD for 14 days
After 24 mg and 48 mg sc doses, higher than dose-proportional exposures were observed (approximately 15% higher than expected).
Therefore, after sc administration, the absolute bioavailability (F) is approximately 0.76.
Preliminary PK results after single and multiple ascending doses of Relaxin Agonist administered subcutaneously (sc) are summarized in Table 6. For all dose regimens (5 mg, 15 mg, and 30 mg), an accumulation of approximately 2.6-fold was observed on Day 14.

[2] = Phase 1 SAD/MAD study in healthy volunteers: safety and tolerability
Method: as §1, §2
In this first-in-human study, the subjects in all SAD cohorts were dosed according to a sentinel dosing design to ensure optimal safety. This meant that initially 2 subjects were dosed: 1 subject with Relaxin Agonist and 1 subject with placebo. If at the lowest dose level (Cohort A1) the safety and tolerability results of the first 48 h following dosing for the initial subjects was acceptable to the Investigator, the other 6 subjects (5 active and 1 placebo) were to be dosed. In Cohorts A2 to A5, the safety and tolerability results of the first 24 h following dose administration were evaluated in the first 2 subjects before the remainder of the subjects in that cohort are dosed.
as §3

[3] = Phase 1 single dose study in severe renal impaired and normal renal function subjects: pharmacokinetics; conditions: for AUC(0-inf) / Cmax: human, in vivo, sc, 4 mg, single 4.0 mg sc; for AUC(0-inf): read-out: AUCINF_pred
From the text: (§4) This study is an open label, phase 1, multi-centre, single dose study in severe renal impaired subjects and in matched subjects with normal renal function. In this preliminary evaluation, five subjects with severe renal impairment and two subjects with normal renal function were included.
This study is a Phase 1, multi-center, single dose study in severe renal impaired subjects and in matched subjects with normal renal function. Five subjects with severe renal impairment and two subjects with normal renal function were included. PK sampling was performed predose and at 1, 2, 3, 4, 6, 8, 10, 12, 24, 48, 72, 96, and 120 h postdose.

[4] = Phase 1 single dose study in severe renal impaired and normal renal function subjects: safety; conditions: single sc 4.0 mg
From the text: as §4

[5] = part B: once daily sc 5.0, 15.0, 30 mg for 14 days
[6] = severe renal impaired group compared to normal group and SAD 4 mg group

AUCinf after iv administration as compared to sc administration ([1]; 4 mg single dose iv vs sc): ~1.3 fold | Cmax after iv administration as compared to sc administration ([1]; 4 mg single dose iv vs sc): approximately 3.5 fold | accumulation ([1]; Day 14, all dose regimens (5 mg, 15 mg, 30 mg sc QD)): approximately 2.6 fold | exposure higher than expected (higher than dose-proportional) ([1]; after 24 mg and 48 mg sc single doses): approximately 15% | bioavailability ([1]; human, in vivo, 4 mg, after sc administration, read-out: absolute bioavailability (F)): ~76% | Cmax ([1]; human, in vivo, iv, 4 mg, Group A2, single 4.0 mg iv, mean, N=6, read-out: Cmax): 1240 ng/mL | Cmax ([1]; human, in vivo, sc, 1 mg, Group A1, single 1.0 mg sc, mean, N=6, read-out: Cmax): 82.9 ng/mL | Cmax ([1]; human, in vivo, sc, 4 mg, Group A2, single 4.0 mg sc, mean, N=6, read-out: Cmax): 356 ng/mL | AUC(0-t) ([1]; human, in vivo, sc, 5 mg, Group B1, 5 mg sc QD, Day 1, mean, N=6): 7790 ng·h/mL | Cmax ([1]; human, in vivo, sc, 5 mg, Group B1, 5 mg sc QD, Day 1, mean, N=6, read-out: Cmax): 384 ng/mL | Cmax ([1]; human, in vivo, sc, 5 mg, Group B1, 5 mg sc QD, Day 14, mean, N=6, Table 6, read-out: Cmax): 1020 ng/mL | Cmax ([1]; human, in vivo, sc, 5 mg, Group B1, 5 mg sc QD, Day 14, mean, N=6, Table 7, read-out: Cmax): 1020 ng/mL | AUC(0-t) ([1]; human, in vivo, sc, 5 mg, Group B1, 5 mg sc QD, Day 14, mean, N=6): 21600 ng·h/mL | Cmax ([1]; human, in vivo, sc, 12 mg, Group A3, single 12.0 mg sc, mean, N=6, read-out: Cmax): 1000 ng/mL | AUC(0-t) ([1]; human, in vivo, sc, 15 mg, Group B2, 15 mg sc QD, Day 1, mean, N=6): 29600 ng·h/mL | Cmax ([1]; human, in vivo, sc, 15 mg, Group B2, 15 mg sc QD, Day 1, mean, N=6, read-out: Cmax): 1630 ng/mL | Cmax ([1]; human, in vivo, sc, 15 mg, Group B2, 15 mg sc QD, Day 14, mean, N=6, Table 6, read-out: Cmax): 3630 ng/mL | Cmax ([1]; human, in vivo, sc, 15 mg, Group B2, 15 mg sc QD, Day 14, mean, N=6, Table 7, read-out: Cmax): 3630 ng/mL | AUC(0-t) ([1]; human, in vivo, sc, 15 mg, Group B2, 15 mg sc QD, Day 14, mean, N=6): 67200 ng·h/mL | Cmax ([1]; human, in vivo, sc, 24 mg, Group A4, single 24.0 mg sc, mean, N=6, read-out: Cmax): 2360 ng/mL | AUC(0-t) ([1]; human, in vivo, sc, 30 mg, Group B3, 30 mg sc QD, Day 1, mean, N=6): 38400 ng·h/mL | Cmax ([1]; human, in vivo, sc, 30 mg, Group B3, 30 mg sc QD, Day 1, mean, N=6, read-out: Cmax): 2010 ng/mL | Cmax ([1]; human, in vivo, sc, 30 mg, Group B3, 30 mg sc QD, Day 14, mean, N=6, Table 6, read-out: Cmax): 6010 ng/mL | Cmax ([1]; human, in vivo, sc, 30 mg, Group B3, 30 mg sc QD, Day 14, mean, N=6, Table 7, read-out: Cmax): 6010 ng/mL | AUC(0-t) ([1]; human, in vivo, sc, 30 mg, Group B3, 30 mg sc QD, Day 14, mean, N=6): 118000 ng·h/mL | Cmax ([1]; human, in vivo, sc, 48 mg, Group A5, single 48.0 mg sc, mean, N=6, read-out: Cmax): 4560 ng/mL | Cmax ([1]; human, in vivo, subcutaneous, 4 mg, SAD study after 4 mg, read-out: Mean Cmax): 356 ng/mL | AUC(0-inf) ([1]; human, in vivo, Group A1, single 1.0 mg sc, mean, N=6): 3220 ng·h/mL | AUC(0-inf) ([1]; human, in vivo, Group A2, single 4.0 mg iv, mean, N=6): 19700 ng·h/mL | AUC(0-inf) ([1]; human, in vivo, Group A2, single 4.0 mg sc, mean, N=6): 15000 ng·h/mL | AUC(0-inf) ([1]; human, in vivo, Group A3, single 12.0 mg sc, mean, N=6): 37100 ng·h/mL | AUC(0-inf) ([1]; human, in vivo, Group A4, single 24.0 mg sc, mean, N=6): 78600 ng·h/mL | AUC(0-inf) ([1]; human, in vivo, Group A5, single 48.0 mg sc, mean, N=6): 178000 ng·h/mL | AUC(0-inf) ([1]; human, in vivo, Group B1, 5 mg sc QD, Day 14, mean, N=6): 50300 ng·h/mL | half-life ([1]; human, in vivo, Group B1, 5 mg sc QD, Day 14, mean, N=6, read-out: T½ (converted)): 23.4 h | AUC(0-inf) ([1]; human, in vivo, Group B2, 15 mg sc QD, Day 14, mean, N=6): 143000 ng·h/mL | half-life ([1]; human, in vivo, Group B2, 15 mg sc QD, Day 14, mean, N=6, read-out: T½ (converted)): 22.9 h | AUC(0-inf) ([1]; human, in vivo, Group B3, 30 mg sc QD, Day 14, mean, N=6): 278000 ng·h/mL | half-life ([1]; human, in vivo, Group B3, 30 mg sc QD, Day 14, mean, N=6, read-out: T½ (converted)): 24.3 h | half-life ([1]; human, in vivo, sc multiple ascending doses, read-out: Terminal half life): 23 to 24 h | dose proportionality of exposures ([1]; multiple ascending sc doses, up to dose regimen of 30 mg): increased dose-proportionally | dose proportionality of exposures ([1]; single ascending sc doses, up to a dose of 12 mg): increased dose-proportionally | AUC(0-inf) ([3]; Normal renal function group, mean, N=2): 12900 ng·h/mL | Cmax ([3]; Normal renal function group, mean, N=2, read-out: Cmax): 302 ng/mL | AUC(0-inf) ([3]; Severe renal impairment group, mean, N=5): 17000 ng·h/mL | Cmax ([3]; Severe renal impairment group, mean, N=5, read-out: Cmax): 392 ng/mL | Cmax ([3]; normal group, read-out: Mean Cmax): 302 ng/mL | Cmax ([3]; severe renal impaired group, read-out: Mean Cmax): 392 ng/mL | increase of mean AUCinf [3, 6]: 14-31% | increase of mean Cmax [3, 6]: 10-30%
Compound: CCCCCCCCCCCCCCCC(=O)N[C@@H](CCC(=O)N[C@@H](CCC(=O)N[C@@H](CCC(=O)NCCCOCCOCCOCCCNC(=O)CCC(=O)NCCCOCCOCCOCCCNC(=O)CCC(=O)NCCCOCCOCCOCCCNC(=O)CCC(=O)NCCCC[C@H](NC(=O)CNC(=O)[C@H](CCC(=O)O)NC(=O)C(C)(C)NC(=O)C(C)(C)NC(=O)[C@@H](NC(=O)[C@H](CCCCNC(C)=O)NC(=O)[C@H](C)NC(=O)[C@H](CCCNC(=N)N)NC(=O)[C@@H](NC(=O)[C@H](CCCCN)NC(=O)[C@H](CCC(=O)O)NC(=O)[C@H](CCCNC(=N)N)NC(=O)CNC(=O)[C@H](CCC(=O)O)NC(=O)[C@H](CC(C)C)NC(C)=O)C(C)C)[C@@H](C)CC)C(=O)N[C@@H](CO)C(=O)N[C@H](C(=O)N[C@@H](Cc1ccccc1)C(=O)N[C@@H](CO)C(=O)N[C@@](C)(CCCCN)C(=O)N[C@@H](CCCNC(=N)N)C(=O)N[C@@H](C)C(=O)N[C@@H](CCCCNC(C)=O)C(N)=O)[C@@H](C)O)C(=O)O)C(=O)O)C(=O)O [SEQ ID NO: 3, Ac-L-E-G-R-E-K-V-R-A-K(Ac)-I-Aib-Aib-E-G-K(TTDS-TTDS-TTDS-gE-gE-gE-Palm)-S--T-F-S-Mly-R-A-K(Ac)-NH2] (Ac-LEGREKVRAK(Ac)I[Aib][Aib]EGK([Suc-X1])STFS[αMeK]RAK(Ac)-NH2)
tolerability and safety ([2]; part A: single sc 1.0, 4.0, 12.0, 24, 48 mg and single iv 4.0 mg): well tolerated and safe | severity of reported adverse events ([2]; part A: single sc 1.0-48 mg and iv 4.0 mg): mild (grade 1) | severity of reported adverse events [2, 5]: mild (grade 1) | tolerability and safety [2, 5]: well tolerated and safe | tolerability and safety ([4]; 5 subjects severe renal impairment and 2 normal renal function): well tolerated and safe | severity of reported adverse events ([4]; two AEs (palpitation, headache) in one subject): grade 1 (mild)
